Assays:
[1] = target: T1, PRMT5/MEP50-MTA protein complex (Homo sapiens, UniProt O14744); experiment: Thermal shift assay: change in melting temperature of the PRMT5/MEP50-MTA protein complex; type: binding; conditions: compound 8 µM, PRMT5/MEP50 2 µM, MTA 2 µM; Tm minus DMSO vehicle control
T1 construct: purchased Viva Biotech
How it was run: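 Human PRMT5/MEP50 (2 µM) preincubated 30 min at room temperature in 50 mM HEPES, 10 mM DTT, 250 mM NaCl with 2 µM MTA and SYPRO Orange. Compound at 8 µM final, 10 min at room temperature, 2.5% DMSO vehicle control. Melt curve 25→95°C at 0.03°C/s gives Tm.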

hERG potassium channel = target: T2, hERG potassium channel (Homo sapiens, UniProt Q12809); experiment: hERG potassium channel inhibitory activity assay (patch clamp, CHO-hERG cells); type: cell-based; conditions: tail current, read-out: inhibitory activity (IC50) against the cardiac hERG potassium channel
T2 construct: host or cells: CHO cells stably expressing hERG (CHO-hERG)
T2 sequence (Q12809 whole entry): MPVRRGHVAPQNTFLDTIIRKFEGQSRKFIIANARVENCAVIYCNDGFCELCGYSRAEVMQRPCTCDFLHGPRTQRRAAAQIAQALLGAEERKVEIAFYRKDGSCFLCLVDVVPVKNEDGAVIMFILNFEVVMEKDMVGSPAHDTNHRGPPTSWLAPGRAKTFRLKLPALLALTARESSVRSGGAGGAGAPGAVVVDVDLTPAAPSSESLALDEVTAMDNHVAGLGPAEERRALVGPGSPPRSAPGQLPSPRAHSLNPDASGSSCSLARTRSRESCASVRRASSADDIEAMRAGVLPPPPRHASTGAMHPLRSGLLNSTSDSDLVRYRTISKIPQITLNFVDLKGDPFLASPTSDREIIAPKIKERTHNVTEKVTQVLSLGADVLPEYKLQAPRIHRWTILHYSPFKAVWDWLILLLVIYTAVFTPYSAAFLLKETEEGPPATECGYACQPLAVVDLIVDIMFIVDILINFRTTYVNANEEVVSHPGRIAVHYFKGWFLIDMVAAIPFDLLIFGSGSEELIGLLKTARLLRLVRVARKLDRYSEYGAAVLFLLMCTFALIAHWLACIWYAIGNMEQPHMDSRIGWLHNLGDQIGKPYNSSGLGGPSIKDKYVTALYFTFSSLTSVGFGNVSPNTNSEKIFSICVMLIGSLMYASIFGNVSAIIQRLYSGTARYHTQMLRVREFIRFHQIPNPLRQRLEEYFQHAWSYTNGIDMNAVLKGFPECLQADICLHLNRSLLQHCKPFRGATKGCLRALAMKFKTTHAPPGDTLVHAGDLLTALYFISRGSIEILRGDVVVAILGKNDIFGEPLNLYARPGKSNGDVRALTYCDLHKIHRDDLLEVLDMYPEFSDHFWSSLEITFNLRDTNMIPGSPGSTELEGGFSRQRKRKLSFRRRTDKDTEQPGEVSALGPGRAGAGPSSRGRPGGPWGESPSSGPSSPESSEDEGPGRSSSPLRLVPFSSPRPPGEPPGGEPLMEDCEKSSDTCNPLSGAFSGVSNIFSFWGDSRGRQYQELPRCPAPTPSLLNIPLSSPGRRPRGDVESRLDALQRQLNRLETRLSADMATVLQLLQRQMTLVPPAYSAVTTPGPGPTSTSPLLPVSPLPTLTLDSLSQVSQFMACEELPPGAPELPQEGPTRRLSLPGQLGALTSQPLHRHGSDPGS
Excerpt: Test Example 5: hERG potassium channel inhibitory activity assay
1. Study objective: to determine the inhibitory effect of the compound on the hERG potassium channel activity. 2. Experimental instruments and reagents: 2.1 Reagents
3. Experimental methods • 3.1 Cell culture: The CHO cells stably expressing the hERG potassium channel (CHO-hERG) used in the experiment were obtained from Sophion Bioscience (Ballerup, Denmark), and passaged and cryopreserved at WuXi AppTec Co., Ltd. in Shanghai. The CHO-hERG cells were cultured and passaged in Ham's F-12 medium containing 1 × GlutaMAX, 10% fetal bovine serum, 100 µg/mL G418 and 100 µg/mL hygromycin B at 37°C with 5% CO2. • 3.2 Preparation of intracellular and extracellular solutions: The extracellular solution was prepared once a month, and aliquoted and stored in 1 L storage bottles. The intracellular solution was prepared once every three months, and aliquoted and cryopreserved at -20°C. The intracellular solution was thawed in a 37°C water bath before the experiment and then placed in an ice bath for later use. • 3.3 Preparation of compounds: The compounds were dissolved in 100% DMSO (Sigma-Aldrich, D2650) to prepare 10 mM or 30 mM stock solutions. Before the experiment, the stock solutions of the test compounds were diluted with DMSO to prepare solutions 1000-fold or 333-fold higher than the desired test concentrations, and then further diluted 1000-fold or 333-fold with the extracellular solution to achieve the desired concentrations. • 3.4 Cell preparation: The CHO-hERG cells used in the experiment were cultured for at least two days. When the cell density reached more than 75%, the cells were digested with TrypLE, then resuspended in the extracellular solution, and centrifuged. The supernatant was discarded, and then the cells were further resuspended in 2 mL of extracellular solution for later use. 4. Experimental data processing: In data processing, the peak tail current was baseline-corrected when evaluating the hERG blocking effect. The effect of each compound at various concentrations was expressed as the inhibition rate of the tail current. IC50 values were obtained by fitting the data to the Hill equation: I/Icontrol = Bottom + (Top−Bottom)/(1+10^(∧)((LogIC50−X)*HillSlope)) [formula] • Top: maximum effect; Bottom: minimum effect; Hillslope: slope; X: concentration of the test compound. • IC50: half-maximal inhibitory concentration of the test compound on hERG. […] 5.

[2] = Pharmacokinetics in rats (plasma) after oral administration; conditions: rat, 5 mg/kg
Experimental: (§3) Test Example 4: Determination of the pharmacokinetics of the compounds of the present invention in rats (plasma) after oral administration.
(§4) Study objective: SD rats were used as test animals to study the pharmacokinetic behaviour of the following example compounds in rats (plasma) after oral administration at a dose of 5 mg/kg. […] Test scheme 2.1 Test drugs: Vehicle formula: 0.5% CMC-Na (1% Tween 80); the examples of the present invention, prepared in house. 2.2 Test animals: 3 SD rats per group, male, purchased from Shanghai Bikai Keyi Biotechnology Co., Ltd., with animal license number (SCXK (Shanghai) 2018-0006, No.20180006037467). 2.3 Administration: 3 SD rats per group, male, were fasted overnight and then respectively administered PO at a dose of 5 mg/kg and a volume of 10 mL/kg. 2.4 Sample collection: 0.2 mL of blood was collected from the jugular vein of rats before administration and at 0, 0.25, 0.5, 1, 2, 4, 6, 8 and 24 h after administration, and placed in EDTA-K2test tubes, and the test tubes were centrifuged at 6,000 rpm at 4°C for 6 min to separate the plasma, which was stored at -80°C. The animals were fed 4 h after administration. 2.5 Sample treatment • 1) 160 uL of acetonitrile was added to 40 uL of plasma sample for precipitation, and after mixing, the mixture was centrifuged at 3,500 × g for 5-20 minutes. • 2) 100 uL of the treated supernatant solution was taken for LC/MS/MS analysis to determine the concentration of the test compounds. 2.6 Liquid phase analysis • Liquid phase conditions: Shimadzu LC-20AD pump; • Mass spectrometry conditions: AB Sciex API 4000 mass spectrometer; • Chromatographic column: phenomenex Gemiu 5 um C18 50 × 4.6 mm; • Mobile phase: solution A: 0.1% formic acid in water, solution B: methanol; • flow rate: 1.0 mL/min; Elution time: 0-4.0 min, with eluents as follows:
(§5) Experimental results and analysis: The main pharmacokinetic parameters were calculated using WinNonlin 8.2.

[3] = test system: MTAP Knockout HCT116 cells; experiment: Cell proliferation inhibition (CellTiter-Glo), MTAP knockout cells; type: cell-based; conditions: for Selectivity: HCT116 versus MTAP Knockout HCT116; for IC50: 72-240 hours incubation, CellTiter-Glo
Excerpt: (§1) Test Example 2: Determination of the inhibitory effect of the compounds of the present invention on the proliferation activity of HCT116 and MTAP Knockout HCT116 cells.
(§2) 1. Experimental objective: to determine the inhibitory effect of the compound on the proliferation activity of HCT116 wild-type and HCT116 MTAP knockout cells. 2. Experimental instruments: Centrifuge (Eppendorf 5810R); microplate reader (BioTek Synergy H1 or PerkinElmer Envision); pipette (Eppendorf or Rainin). 3. Experimental reagents: HCT116 and MTAP Knockout HCT116 cells were purchased from Nanjing Cobioer; Cell Titer-Glo was purchased from Promega (Cat. No. G7573); McCoy' 5A was purchased from Gibco (Cat. No. 12330031); FBS was purchased from Gibco (Cat. No. 10091148); PBS was purchased from Gibco (Cat. No. 10010023); trypsin was purchased from Gibco (Cat. No. 25200056); cell culture plates were purchased from Corning (Cat. No. 3610). 4. Experimental methods: HCT116 and MTAP Knockout HCT116 cells were cultured in McCoy'5A medium containing 10% FBS until an appropriate cell density was reached. The cells were then collected and adjusted to a suitable concentration using complete medium. The cell suspension was seeded into a 96-well plate at 90 µL per well and allowed to adhere overnight in a 37°C, 5% CO2 incubator. Compound solutions of various concentrations were prepared using DMSO and culture medium, with a vehicle control set. The compound solutions were added to the 96-well plate at 10 µL per well, and the plate was incubated in a 37°C, 5% CO2 incubator for an additional 72-240 hours. After incubation, CellTiter-Glo solution was added, and the mixture was mixed uniformly by shaking, followed by incubation in the dark for 10 to 30 minutes. Luminescence was measured using a Synergy H1 or Envision microplate reader. 5. Experimental data processing method: The inhibition rate was calculated using the luminescence signal values, and the concentrations along with the inhibition rates were subjected to non-linear regression curve fitting using Graphpad Prism software to obtain the IC50 values.

HCT116 wild-type cells = experiment: Cell proliferation inhibition (CellTiter-Glo), wild-type cells; type: cell-based; conditions: 72-240 hours incubation
Excerpt: as §1, §2

in vivo = conditions: rat, po, 5 mg/kg
Experimental: as §3, §4, §5

[4] = Homo sapiens, HCT-116, MTAP Knockout HCT116 cells
[5] = Homo sapiens, HCT-116, HCT116 wild-type cells

T1 sequence (O14744 whole entry): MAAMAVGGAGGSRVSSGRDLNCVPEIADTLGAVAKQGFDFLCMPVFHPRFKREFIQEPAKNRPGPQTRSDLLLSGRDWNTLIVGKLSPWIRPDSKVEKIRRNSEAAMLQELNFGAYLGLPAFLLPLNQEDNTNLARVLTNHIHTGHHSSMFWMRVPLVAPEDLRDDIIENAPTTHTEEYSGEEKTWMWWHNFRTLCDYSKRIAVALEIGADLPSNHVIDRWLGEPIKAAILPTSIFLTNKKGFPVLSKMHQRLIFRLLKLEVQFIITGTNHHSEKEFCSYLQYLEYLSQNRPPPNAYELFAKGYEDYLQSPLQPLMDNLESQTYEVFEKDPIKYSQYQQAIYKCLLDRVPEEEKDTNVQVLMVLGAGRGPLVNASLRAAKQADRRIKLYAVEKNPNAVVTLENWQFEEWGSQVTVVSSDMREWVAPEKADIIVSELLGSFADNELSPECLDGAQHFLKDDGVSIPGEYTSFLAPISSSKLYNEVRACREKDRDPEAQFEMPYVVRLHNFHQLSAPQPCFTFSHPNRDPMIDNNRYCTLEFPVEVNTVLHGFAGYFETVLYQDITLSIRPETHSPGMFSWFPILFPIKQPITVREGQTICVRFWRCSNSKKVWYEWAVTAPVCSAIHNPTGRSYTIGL
T1 sequence (Q9BQA1 whole entry partner): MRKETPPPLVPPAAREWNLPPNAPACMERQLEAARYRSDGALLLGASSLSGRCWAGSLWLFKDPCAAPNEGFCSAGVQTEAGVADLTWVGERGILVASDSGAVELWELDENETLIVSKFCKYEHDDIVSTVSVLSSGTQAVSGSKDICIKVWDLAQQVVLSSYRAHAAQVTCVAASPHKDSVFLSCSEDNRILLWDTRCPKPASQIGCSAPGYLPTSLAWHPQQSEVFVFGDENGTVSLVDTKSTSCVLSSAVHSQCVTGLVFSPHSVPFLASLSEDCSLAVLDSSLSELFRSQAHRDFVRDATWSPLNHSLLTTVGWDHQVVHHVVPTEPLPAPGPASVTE

Row | Structure (SMILES) | ΔTm at 8 µM [1] | IC50 (hERG potassium channel) | AUC(0-inf) ([2]; male, SD) | Cmax ([2]; male, SD) | MRT inf ([2]; male, SD) | Tmax ([2]; male, SD) | half-life ([2]; male, SD) | Selectivity [3] | IC50 [3, 4] | IC50 (HCT116 wild-type cells; [5]) | other results
1 | [2H]C([2H])([2H])NN(C(=O)c1cc2c3c(c(N)nc2cn1)COC3)C1COCc2c1ccn1c(C(F)(F)F)cnc21 (centres unmarked) [Example 371, 4-Amino-N'-(methyl-d3)-N-(3-(trifluoromethyl)-7,10-dihydro-8H-imidazo[1,2-a]pyrano[3,4-c]pyridin-7-yl)-1,3-dihydrofuro[3,4-c][1,7]naphthyridine-8-carbohydrazide] | 10.6 °C | > 30000 nM | 3730 ng·h/mL | 1050 ng/mL | 4.4 h | 0.5 h | 4.4 h |  |  |  | 
2 | Cc1cc2nc(N)c3cncn3c2cc1C(=O)N(C1COCc2nc(C(F)(F)F)ccc21)N(C)C (centres unmarked) [Example 276, 4-Amino-N',N',7-trimethyl-N-(2-(trifluoromethyl)-5,8-dihydro-6H-pyrano[3,4-b]pyridin-5-yl)imidazo[1,5-a]quinoxaline-8-carbohydrazide] | 10.4 °C | > 30000 nM |  |  |  |  |  |  |  |  | 
3 | CNN(C(=O)c1cc2c3c(c(N)nc2cn1)COC3)[C@@H]1COCc2nc(C(F)(F)F)ccc21 [Example 286-P1, (S)-4-amino-N'-methyl-N-(2-trifluoromethyl-5,8-dihydro-6H-pyrano[3,4-b]pyridin-5-yl)-1,3-dihydrofuro[3,4-c][1,7]naphthyridine-8-carbohydrazide] | 11.1 °C | > 30000 nM | 1280 ng·h/mL | 480 ng/mL | 2.5 h | 0.5 h | 2.1 h | 118 | 23 nM | 2680 nM | 
4 | [2H]C([2H])([2H])NN(C(=O)c1cc2c(cn1)nc(N)c1cnn(C)c12)C1COCc2c1ccn1c(C(F)(F)F)cnc21 (single isomer, unassigned) [Example 391-P1] |  | > 30000 nM |  |  |  |  |  | 14 |  |  | ΔTm (°C) [1]: 13.02 °C; IC50 ([3]; MTAP Knockout HCT116 cells): 8.8 nM; IC50 (HCT116 wild-type cells; HCT116 wild-type cells): 121 nM
5 | CNN(C(=O)c1cc2c3c(c(N)nc2cn1)COC3)[C@@H]1COCc2nc(S(F)(F)(F)(F)F)ccc21 [Example 374, 4-Amino-N'-methyl-N-(2-pentafluorosulphanyl-5,8-dihydro-6H-pyrano[3,4-b]pyridin-5-yl)-1,3-dihydrofuran[3,4-c][1,7]naphthyridine-8-hydrazide] | 12.3 °C | > 30000 nM |  |  |  |  |  | 23 | 13 nM | 303 nM | AUC(0-inf) [2]: 1180 ng·h/mL; Cmax [2]: 652 ng/mL; MRT inf [2]: 1.9 h; Tmax [2]: 0.5 h; half-life [2]: 1.9 h
6 | [2H]C([2H])([2H])NN(C(=O)c1cc2c3c(c(N)nc2cn1)[C@@H](C)OC3)[C@@H]1COCc2c1ccn1c(C(F)(F)F)cnc21 [Example 362-P1] | 12 °C | > 30000 nM |  |  |  |  |  | 68 | 6.7 nM | 450 nM | AUC(0-inf) [2]: 8180 ng·h/mL; Cmax [2]: 2750 ng/mL; MRT inf [2]: 2.8 h; Tmax [2]: 0.7 h; half-life [2]: 2.7 h
7 | [2H]C([2H])([2H])NN(C(=O)c1cc2c3c(c(N)nc2cn1)COC3)C1COCc2nc(C(F)(F)F)ccc21 (centres unmarked) [Example 321] | 10.9 °C | > 30000 nM |  |  |  |  |  |  |  |  | 
8 | CNN(C(=O)c1cc2c3c(c(N)nc2cn1)COC3)C1COc2cc(S(F)(F)(F)(F)F)ccc21 (single isomer, unassigned) [Example 372-P1] | 11.6 °C |  |  |  |  |  |  | 69 | 12 nM | 819 nM | AUC(0-inf) (in vivo): 2570 ng·h/mL; Cmax (in vivo): 378 ng/mL; MRT inf (in vivo): 4.8 h; Tmax (in vivo): 2.7 h; half-life (in vivo): 2.7 h
9 | [2H]C([2H])([2H])NN(C(=O)c1cc2c(cn1)nc(N)c1cnn(C)c12)C1COCc2c1ccn1c(C(F)(F)F)cnc21 (centres unmarked) [Example 391, 4-Amino-1-methyl-N'-(methyl-d3)-N-(3-trifluoromethyl-7,10-dihydro-8H-imidazo[1,2-a]pyrano[3,4-c]pyridin-7-yl)-1H-pyrazolo[4,3-c][1,7]naphthyridine-8-carbohydrazide] | 12.7 °C | > 30000 nM | 11900 ng·h/mL | 1690 ng/mL | 5.8 h | 1.5 h | 4.4 h | 28 | 13 nM |  | IC50 (HCT116 wild-type cells; HCT116 wild-type cells): 358 nM

Reference: patent EP4818177A1, “TRICYCLIC DERIVATIVE INHIBITOR, AND PREPARATION METHOD AND USE THEREFOR” (Shanghai Hansoh Biomedical Co., Ltd., priority 2023, dated 2025)
